{"source": "patent US9296716B2", "about": "“Androgen receptor ligands” (THE PROVOST, FELLOWS, FOUNDATION SCHOLARS, & THE OTHER …, priority 2011, dated 2016)", "assay_type_in_all_cases": "cell-based", "key": {"PC-3 cells": {"test_system": "PC-3 cells", "test": "Cell viability (AlamarBlue), PC-3", "conditions": "50 μM, 24 hours", "description": "Cell viability was assessed after 24 hours of incubation with the test compounds initially at three different concentrations to establish their dose-responsiveness, considering 50 μM as the highest concentration (FIG. 10).\nFor cell viability (end point) assays LNCaP, PC-3 and PWR-1E cells were seeded at 2.5*10^4/ml density in 200 μl volume of a 96-well plate in triplicate and incubated for 24 hours prior testing. Test compounds were included at different concentrations to achieve a final concentration of 0.5% DMSO in each well. Effect of 0.5% DMSO on cell-viability was also evaluated. Cell viability was assessed after 24 hours of treatment using 10% Alamar Blue reagent (Invitrogen) for each well. Cell viability was monitored by the reduction of resazurin, a blue, cell-permeable and non-toxic compound, to resorufin, a red and highly fluorescent product. Viable cells continuously convert resazurin to resorufin, increasing the overall colour and fluorescence of the media surrounding cells. Fluorescence intensity can be quantitatively determined with a fluorescence microplate reader at excitation/emission 544 nm/590 nm (Spectramax Gemini). For hormone dependent cell proliferation assays in androgen deprived LNCaP cells, cells were seeded at 2*10^4 cells/ml in a 24-well plate in triplicate. […] A control for the vehicle was included to ensure no effect on viability could be detected. […]"}, "LNCaP cells": {"test_system": "LNCaP cells", "test": "LNCaP cell proliferation assay (androgen deprived, AlamarBlue)", "conditions": "LNCaP, androgen deprived media, no DHT", "description": "To determine the optimal DHT concentration and length of treatment required for cell proliferation assays, we tested a range of DHT concentrations in 0.1% DMSO for 5 or 7 days in LNCaP cells cultured in FBS stripped phenol red free media. […] Media and treatments were replaced every second incubation day (FIGS. 12 A and B)\n(§1) For cell viability (end point) assays LNCaP, PC-3 and PWR-1E cells were seeded at 2.5*10^4/ml density in 200 μl volume of a 96-well plate in triplicate and incubated for 24 hours prior testing. Test compounds were included at different concentrations to achieve a final concentration of 0.5% DMSO in each well. Effect of 0.5% DMSO on cell-viability was also evaluated. Cell viability was assessed after 24 hours of treatment using 10% Alamar Blue reagent (Invitrogen) for each well. Cell viability was monitored by the reduction of resazurin, a blue, cell-permeable and non-toxic compound, to resorufin, a red and highly fluorescent product. Viable cells continuously convert resazurin to resorufin, increasing the overall colour and fluorescence of the media surrounding cells. Fluorescence intensity can be quantitatively determined with a fluorescence microplate reader at excitation/emission 544 nm/590 nm (Spectramax Gemini). For hormone dependent cell proliferation assays in androgen deprived LNCaP cells, cells were seeded at 2*10^4 cells/ml in a 24-well plate in triplicate. Cells were plated in phenol red free RPMI Glutamax (Invitrogen) supplemented with 10% charcoal-stripped FBS to deplete endogenous steroids 48 hours prior the assay as described in previous reports. […] Cells were treated with different concentrations of test compounds with or without 0.1 nM DHT to achieve a final concentration of 0.1% DMSO in each well. A control for the vehicle was included to ensure no effect on viability could be detected. Media and treatments were replaced every second day, after washing the cells twice with 1×PBS. Supernatants were collected after five days for secreted PSA levels evaluation and cell proliferation was assessed for the same plate using Alamar Blue in order to exclude non-specific effects due to toxicity issues."}, "[1]": {"test_system": "PSA expression in LNCaP cells", "test": "PSA ELISA, secreted PSA in LNCaP cells", "conditions": "bell-shaped effect", "description": "(§2) To investigate compounds effect on PSA expression, a common biomarker for prostate cancer, we utilized a human PSA ELISA assay.\nas §1\nSecreted levels of prostate specific antigen were evaluated with a commercially available kit (Quantikine Human Kallikrein 3/PSA Immunoassay, R&D systems). The assay was performed following manufacturer's guidelines. In brief, 50 μl of standards and cell culture samples were added to pre-coated wells containing assay diluent RD1W (R&D systems) and incubated for two hours at room temperature. […] Wells were washed and treated with colored substrate (Tetramethylbenzidine) for an additional 30 minutes, after which 50 μl of stop solution (Sulphuric Acid 2N) was added per well and absorbance (450 nm with correction at 540 nm) was read with a plate reader within 30 minutes (Versamax)."}, "[2]": {"test_system": "PSA expression in 22Rv1 cells", "test": "PSA ELISA, secreted PSA in 22Rv1 cells", "conditions": "22Rv1", "description": "as §2\n(§3) We repeated the same experiment in 22Rv1 cell line.\nSecreted levels of prostate specific antigen were evaluated with a commercially available kit (Quantikine Human Kallikrein 3/PSA Immunoassay, R&D systems). The assay was performed following manufacturer's guidelines. In brief, 50 μl of standards and cell culture samples were added to pre-coated wells containing assay diluent RD1W (R&D systems) and incubated for two hours at room temperature. Unbound material was washed several times and 200 μl of Horseradish Peroxidase (HRP) labeled PSA conjugate antibody was added to each well and further incubated for two hours at room temperature. Wells were washed and treated with colored substrate (Tetramethylbenzidine) for an additional 30 minutes, after which 50 μl of stop solution (Sulphuric Acid 2N) was added per well and absorbance (450 nm with correction at 540 nm) was read with a plate reader within 30 minutes (Versamax)."}, "22Rv1 cells": {"test_system": "22Rv1 cells", "test": "22Rv1 cell proliferation assay", "description": "Thus, inhibition on cell proliferation by the compounds could not be evaluated (FIG. 14)\nas §3\nFor cell viability (end point) assays LNCaP, PC-3 and PWR-1E cells were seeded at 2.5*10^4/ml density in 200 μl volume of a 96-well plate in triplicate and incubated for 24 hours prior testing. Test compounds were included at different concentrations to achieve a final concentration of 0.5% DMSO in each well. Effect of 0.5% DMSO on cell-viability was also evaluated. Cell viability was assessed after 24 hours of treatment using 10% Alamar Blue reagent (Invitrogen) for each well. Cell viability was monitored by the reduction of resazurin, a blue, cell-permeable and non-toxic compound, to resorufin, a red and highly fluorescent product. Viable cells continuously convert resazurin to resorufin, increasing the overall colour and fluorescence of the media surrounding cells. Fluorescence intensity can be quantitatively determined with a fluorescence microplate reader at excitation/emission 544 nm/590 nm (Spectramax Gemini). […] A control for the vehicle was included to ensure no effect on viability could be detected. […] Supernatants were collected after five days for secreted PSA levels evaluation and cell proliferation was assessed for the same plate using Alamar Blue in order to exclude non-specific effects due to toxicity issues."}}, "note": "“Also recorded” adds a separate entry of the source.", "data": [{"compound": "CC(=O)O[C@]1(C(C)=O)CC[C@H]2[C@@H]3C=C(Cl)C4=CC(=O)[C@@H]5C[C@@H]5[C@]4(C)[C@H]3CC[C@@]21C", "note": "[CPA, Cyproterone Acetate, reference compound]", "values": [{"measurement": "effect on cell viability", "setting": "PC-3 cells", "result": "minor effect"}, {"measurement": "cell proliferation in absence of DHT / androgens", "setting": "LNCaP cells", "result": "induces cell proliferation; also recorded: stimulates cell proliferation"}, {"measurement": "maximal stimulatory concentration for PSA secretion", "setting": "[1]", "result": 1, "unit": "µM"}, {"measurement": "PSA expression in absence of androgens", "setting": "[2]", "result": "remarkable increase"}, {"measurement": "cell proliferation in absence of androgens", "setting": "22Rv1 cells", "result": "couldn't see a remarkable increase"}]}]}
